Earlier results in patent US6939558B2, “Intravaginal devices containing progesterone for estrus synchronization and related proceses” (Akzo Nobel N.V., priority 2001, dated 2005).

Test system: bovines
Details: 1 mg Estradiol Benzoate 24 hours after removal of the device

For `C[C@]12CC[C@@H]3c4ccc(OC(=O)c5ccccc5)cc4CC[C@H]3[C@@H]1CC[C@@H]2O` [Estradiol Benzoate], the “ovulation after removal of the device” value is given as 70 h.
